Reference: patent publication US8916702B2 (priority 2012, dated 2014)

System: HCV pseudoparticles (genotype 1a HCV E1 and E2 envelope, H77C isolate)
Experiment: microbe, parasite or virus in culture
Assay type: cell-based
Conditions: Hepatitis C virus, Huh-7, 48 h, HCV pseudoparticle infection of Huh7 cells, luciferase 2 days after infection; average of duplicates

| SMILES | EC50 [nM] |
| --- | --- |
| Cn1cnnc1-c1ccc(NC(=O)C(=O)NCC(C)(C)CNC(=O)c2ccc(Nc3nc(NC4(c5ccc(Cl)cc5)CC4)nc(OCC(F)(F)F)n3)cc2)cc1 [Compound 1601] | 0.03 |

Same assay, conditions: Hepatitis C virus, Huh-7, 48 h, HCV pseudoparticles (genotype 1a, H77C) in Huh7 cells; average of duplicate; luciferase 2 days after infection

| SMILES | EC50 [nM] |
| --- | --- |
| C=Cc1ccc(NC(=O)C(=O)NCC[C@H](NC(=O)c2ccc(Nc3nc(NC4(c5ccc(Cl)cc5)CC4)nc(OCC(F)(F)F)n3)cc2)C(=O)OC)cc1 [Compound 3129] | 0.089 |
| Cc1ccc(NC(=O)C(=O)N(C)CCCNC(=O)c2ccc(Nc3nc(NC4(c5ccc(Cl)cc5)CC4)nc(OCC(F)(F)F)n3)cc2)cc1 [Compound 3445] | 0.061 |

Same assay, conditions: Hepatitis C virus, Huh-7, 48 h, HCV pseudoparticles, Huh7 cells, luciferase 2 days after infection; average of duplicates

| SMILES | EC50 [nM] |
| --- | --- |
| O=C(NCC[C@H](NC(=O)c1ccc(Nc2nc(NC3(c4ccc(Cl)cc4)CC3)nc(OCC(F)(F)F)n2)cc1)C(=O)O)C(=O)Nc1cccc(OC(F)(F)F)c1 [Compound 3619] | 0.084 |
| CN(C)CCOc1ccc(NC(=O)C(=O)NCC[C@H](NC(=O)c2ccc(Nc3nc(NC4(c5ccc(Cl)cc5)CC4)nc(OCC(F)(F)F)n3)cc2)C(=O)O)cn1 [Compound 3660] | 1.67 |

Same assay, conditions: Hepatitis C virus, Huh-7, 48 h, read-out: Activity (EC50 class), HCV pseudoparticle infection of Huh7 cells, luciferase 2 days after infection; EC50 expressed as class A/B

| SMILES | EC50 [nM] |
| --- | --- |
| COC(=O)[C@H](CCNC(=O)C(=O)NCCn1cncn1)NC(=O)c1ccc(Nc2nc(NC3(c4ccc(Cl)cc4)CC3)nc(OCC(F)(F)F)n2)cc1 [Compound 1321] | 0.01 to 10 |
| COC(=O)[C@H](CNC(=O)C(=O)NCCn1cccn1)NC(=O)c1ccc(Nc2nc(NC3(c4ccc(Cl)cc4)CC3)nc(OCC(F)(F)F)n2)cc1 [Compound 1300] | 0.01 to 10 |
| O=C(NC[C@H](NC(=O)c1ccc(Nc2nc(NC3(c4ccc(Cl)cc4)CC3)nc(OCC(F)(F)F)n2)cc1)C(=O)O)C(=O)Nc1ccc(C(F)(F)F)cc1 [Compound 1363] | 0.01 to 10 |
| CC(C)(CNC(=O)C(=O)Nc1ccc(-c2ccccc2)cc1)CNC(=O)c1ccc(Nc2nc(NC3(c4ccc(Cl)cc4)CC3)nc(OCC(F)(F)F)n2)cc1 [Compound 1590] | 0.01 to 10 |
| COC(=O)[C@H](CCNC(=O)C(=O)NC1CCCC(O)C1)NC(=O)c1ccc(Nc2nc(NC3(c4ccc(Cl)cc4)CC3)nc(OCC(F)(F)F)n2)cc1 (some centres unmarked) [Compound 1070] | 0.01 to 10 |
| COC(=O)[C@H](CCNC(=O)C(=O)NCC1CC[C@H]2C[C@@H]1C2(C)C)NC(=O)c1ccc(Nc2nc(NC3(c4ccc(Cl)cc4)CC3)nc(OCC(F)(F)F)n2)cc1 (some centres unmarked) [Compound 1201] | 0.01 to 10 |
| O=C(NCC[C@H](NC(=O)c1ccc(Nc2nc(NC3(c4ccc(Cl)cc4)CC3)nc(OCC(F)(F)F)n2)cc1)C(=O)O)C(=O)NCC1(CO)CC1 [Compound 1424] | 0.01 to 10 |
| COc1ncccc1NC(=O)C(=O)NC[C@H](NC(=O)c1ccc(Nc2nc(NC3(c4ccc(Cl)cc4)CC3)nc(OCC(F)(F)F)n2)cc1)C(=O)O [Compound 1347] | 0.01 to 10 |
| COC(=O)[C@H](CCNC(=O)C(=O)Nc1cccc(Cl)c1)NC(=O)c1ccc(Nc2nc(NC3(c4ccc(Cl)cc4)CC3)nc(OCC(F)(F)F)n2)cc1 [Compound 1499] | 0.01 to 10 |
| COC(=O)[C@H](CNC(=O)C(=O)NC1CCCCCCC1)NC(=O)c1ccc(Nc2nc(NC3(c4ccc(Cl)cc4)CC3)nc(OCC(F)(F)F)n2)cc1 [Compound 1068] | 0.01 to 10 |
| COCC1(CNC(=O)C(=O)NCC[C@H](NC(=O)c2ccc(Nc3nc(NC4(c5ccc(Cl)cc5)CC4)nc(OCC(F)(F)F)n3)cc2)C(=O)OC)CC1 [Compound 1374] | 0.01 to 10 |
| CC1CCC(NC(=O)C(=O)NC[C@H](NC(=O)c2ccc(Nc3nc(NC4(c5ccc(Cl)cc5)CC4)nc(OCC(F)(F)F)n3)cc2)C(=O)O)CC1 (some centres unmarked) [Compound 1092] | 0.01 to 10 |
| CC(C)(CNC(=O)C(=O)Nc1ccc(F)cc1F)CNC(=O)c1ccc(Nc2nc(NC3(c4ccc(Cl)cc4)CC3)nc(OCC(F)(F)F)n2)cc1 [Compound 1539] | 0.01 to 10 |
| CC(C)(CNC(=O)C(=O)Nc1ccc(-c2cscn2)cc1)CNC(=O)c1ccc(Nc2nc(NC3(c4ccc(Cl)cc4)CC3)nc(OCC(F)(F)F)n2)cc1 [Compound 1595] | 0.01 to 10 |
| Cn1cnnc1-c1ccc(NC(=O)C(=O)NCC(C)(C)CNC(=O)c2ccc(Nc3nc(NC4(c5ccc(Cl)cc5)CC4)nc(OCC(F)(F)F)n3)cc2)cc1 [Compound 1601] | 0.01 to 10 |
| CC(C)OC(=O)[C@H](CNC(=O)C(=O)N(C)C)NC(=O)c1ccc(Nc2nc(NC3(c4ccc(Cl)cc4)CC3)nc(OCC(F)(F)F)n2)cc1 [Compound 1021, (S)-isopropyl 2-(4-(4-(1-(4-chlorophenyl)cyclopropylamino)-6-(2,2,2-trifluoroethoxy)-1,3,5-triazin-2-ylamino)benzamido)-3-(2-(dimethylamino)-2-oxoacetamido)propanoate] | 0.01 to 10 |
| O=C(NCC[C@H](NC(=O)c1ccc(Nc2nc(NC3(c4ccc(Cl)cc4)CC3)nc(OCC(F)(F)F)n2)cc1)C(=O)O)C(=O)NCC1CCc2ccccc21 (some centres unmarked) [Compound 1345] | 0.01 to 10 |
| CC1(C)C(CNC(=O)C(=O)NCC[C@@H](NC(=O)c2ccc(Nc3nc(NC4(c5ccc(Cl)cc5)CC4)nc(OCC(F)(F)F)n3)cc2)C(=O)O)C1(C)C [Compound 1449] | 0.01 to 10 |
| COC(=O)[C@H](CCNC(=O)C(=O)NC1CCN(C(=O)OC(C)(C)C)CC1)NC(=O)c1ccc(Nc2nc(NC3(c4ccc(Cl)cc4)CC3)nc(OCC(F)(F)F)n2)cc1 [Compound 1101] | 0.01 to 10 |
| CC(NC(=O)C(=O)NCC[C@H](NC(=O)c1ccc(Nc2nc(NC3(c4ccc(Cl)cc4)CC3)nc(OCC(F)(F)F)n2)cc1)C(=O)O)C1CC1 (some centres unmarked) [Compound 1440] | 0.01 to 10 |
| O=C(NC[C@H](NC(=O)c1ccc(Nc2nc(NC3(c4ccc(Cl)cc4)CC3)nc(OCC(F)(F)F)n2)cc1)C(=O)O)C(=O)NC1CCCC1 [Compound 1037] | 0.01 to 10 |

Same assay, conditions: Hepatitis C virus, Huh-7, 48 h, read-out: Activity (EC50 class), HCV pseudoparticles, Huh7 cells, luciferase 2 days after infection; average of duplicates

| SMILES | EC50 [nM] |
| --- | --- |
| O=C(NCC[C@H](NC(=O)c1ccc(Nc2nc(NC3(c4ccc(Cl)cc4)CC3)nc(OCC(F)(F)F)n2)cc1)C(=O)O)C(=O)Nc1ccc(OCCN2CCCCC2)nc1 [Compound 3661] | 0.01 to 10 |
| O=C(NCC[C@H](NC(=O)c1ccc(Nc2nc(NC3(c4ccc(Cl)cc4)CC3)nc(OCC(F)(F)F)n2)cc1)C(=O)O)C(=O)Nc1cccc(OC(F)(F)F)c1 [Compound 3619] | 0.01 to 10 |
| CC(C)c1ccc(COc2nc(Nc3ccc(C(=O)NCC(C)(C)CNC(=O)C(=O)Nc4ccc(F)cc4F)c(F)c3)nc(NC3(c4ccc(Cl)cc4)CC3)n2)cc1 [Compound 3835, N^1-(3-(4-((4-((1-(4-chlorophenyl)cyclopropyl)amino)-6-((4-isopropylbenzyl)oxy)-1,3,5-triazin-2-yl)amino)-2-fluorobenzamido)-2,2-dimethylpropyl)-N^2-(2,4-difluorophenyl)oxalamide] | 0.01 to 10 |
| CC(C)(CNC(=O)C(=O)Nc1nc2c(Cl)ccc(Cl)c2s1)CNC(=O)c1ccc(Nc2nc(NC3(c4ccc(Cl)cc4)CC3)nc(OCC(F)(F)F)n2)cc1 [Compound 3837] | 0.01 to 10 |
| CN(C)CCOc1ccc(NC(=O)C(=O)NCC[C@H](NC(=O)c2ccc(Nc3nc(NC4(c5ccc(Cl)cc5)CC4)nc(OCC(F)(F)F)n3)cc2)C(=O)O)cn1 [Compound 3660] | 0.01 to 10 |

Same assay, conditions: Hepatitis C virus, Huh-7, read-out: Activity (EC50 class), HCV pseudoparticles (genotype 1a, H77C) in Huh7 cells; EC50 expressed as class A/B

| SMILES | EC50 [nM] |
| --- | --- |
| COc1ccc(NC(=O)C(=O)NCC(C)(C)CNC(=O)c2ccc(Nc3nc(NC4(c5ccc(Cl)cc5)CC4)nc(OCC(F)(F)F)n3)cc2)c(C)c1 [Compound 3068] | 0.01 to 10 |
| COC(=O)[C@H](CCNC(=O)C(=O)Nc1ccc(C(N)=O)cc1)NC(=O)c1ccc(Nc2nc(NC3(c4ccc(Cl)cc4)CC3)nc(OCC(F)(F)F)n2)cc1 [Compound 3116] | 0.01 to 10 |
| C=Cc1ccc(NC(=O)C(=O)NCC[C@H](NC(=O)c2ccc(Nc3nc(NC4(c5ccc(Cl)cc5)CC4)nc(OCC(F)(F)F)n3)cc2)C(=O)OC)cc1 [Compound 3129] | 0.01 to 10 |
| O=C(NCCNC(=O)c1ccc(Nc2nc(NC3(c4ccc(Cl)cc4)CC3)nc(OCC(F)(F)F)n2)cc1)C(=O)NCc1ccc(F)cc1 [Compound 3370] | 0.01 to 10 |
| COC(=O)[C@H](CCNC(=O)C(=O)Nc1ccc(-c2nncn2C)cc1)NC(=O)c1ccc(Nc2nc(NC3(c4ccc(Cl)cc4)CC3)nc(OCC(F)(F)F)n2)cc1 [Compound 3317] | 0.01 to 10 |
| O=C(NCc1ccc(F)cc1)C(=O)NCC(O)CNC(=O)c1ccc(Nc2nc(NC3(c4ccc(Cl)cc4)CC3)nc(OCC(F)(F)F)n2)cc1 (centres unmarked) [Compound 3368] | 0.01 to 10 |
| CC(C)(CNC(=O)c1ccc(Nc2nc(NC3(c4ccc(Cl)cc4)CC3)nc(OCC(F)(F)F)n2)cc1)NC(=O)C(=O)NCc1ccc(F)cc1 [Compound 3419] | 0.01 to 10 |
| Cc1ccc(-c2ccc(NC(=O)C(=O)NCCC(NC(=O)c3ccc(Nc4nc(NC5(c6ccc(Cl)cc6)CC5)nc(OCC(F)(F)F)n4)cc3)C(=O)O)cc2)cc1 (centres unmarked) [Compound 3526] | 0.01 to 10 |
| CN(CCCN(C)C(=O)c1ccc(Nc2nc(NC3(c4ccc(Cl)cc4)CC3)nc(OCC(F)(F)F)n2)cc1)C(=O)C(=O)NC1CCCCC1 [Compound 3429] | 0.01 to 10 |
| CC(C)(CNC(=O)C(=O)Nc1ccccc1-c1ccccc1)CNC(=O)c1ccc(Nc2nc(NC3(c4ccc(Cl)cc4)CC3)nc(OCC(F)(F)F)n2)cc1F [Compound 3556] | 0.01 to 10 |
| COC(=O)[C@H](CNC(=O)C(=O)Nc1ccc(C(=O)N2CCOCC2)cc1)NC(=O)c1ccc(Nc2nc(NC3(c4ccc(Cl)cc4)CC3)nc(OCC(F)(F)F)n2)cc1 [Compound 3099] | 0.01 to 10 |
| O=C(NCCCCNC(=O)c1ccc(Nc2nc(NC3(c4ccc(Cl)cc4)CC3)nc(OCC(F)(F)F)n2)cc1)C(=O)NC1CCCCC1 [Compound 3398] | 0.01 to 10 |
| CC(C)(CNC(=O)C(=O)Nc1ccccc1C(=O)N1CCCCC1)CNC(=O)c1ccc(Nc2nc(NC3(c4ccc(Cl)cc4)CC3)nc(OCC(F)(F)F)n2)cc1 [Compound 3063] | 0.01 to 10 |
| CC(C)(CNC(=O)C(=O)NCc1ccc(-c2ccccc2)cc1)CNC(=O)c1ccc(Nc2nc(NC3(c4ccc(Cl)cc4)CC3)nc(OCC(F)(F)F)n2)cc1 [Compound 3017] | 0.01 to 10 |
| CC(C)(CNC(=O)C(=O)Nc1c(F)cc(F)cc1F)CNC(=O)c1ccc(Nc2nc(NC3(c4ccc(Cl)cc4)CC3)nc(OCC(F)(F)F)n2)cc1 [Compound 3416] | 0.01 to 10 |
| O=C(NCC[C@H](NC(=O)c1ccc(Nc2nc(NC3(c4ccc(Cl)cc4)CC3)nc(OCC(F)(F)F)n2)cc1)C(=O)O)C(=O)Nc1ccc(OC2CCOCC2)cc1 [Compound 3546] | 0.01 to 10 |
| O=C(NC[C@H](NC(=O)c1ccc(Nc2nc(NC3(c4ccc(Cl)cc4)CC3)nc(OCC(F)(F)F)n2)cc1)C(=O)O)C(=O)Nc1ccc(-c2cc[nH]n2)cc1 [Compound 3278] | 0.01 to 10 |
| CC(C)(CNC(=O)c1ccc(Nc2nc(NC3(c4ccc(Cl)cc4)CC3)nc(OCC(F)(F)F)n2)cc1)NC(=O)C(=O)Nc1cc(F)cc(F)c1 [Compound 3424] | 0.01 to 10 |
| Cc1ccc(NC(=O)C(=O)N(C)CCCNC(=O)c2ccc(Nc3nc(NC4(c5ccc(Cl)cc5)CC4)nc(OCC(F)(F)F)n3)cc2)cc1 [Compound 3445] | 0.01 to 10 |
